Some test systems named below: K562; HT-29; HOP-92; RPMI-8226; COLO 205; TK-10; EKVX; SNB-75; NCI-H23; A549; A498; SR; SF-295; SK-MEL-28; RXF 393; OVCAR-5; OVCAR-3; NCI-H460; SF-539.
Common to all, as to assay: NCI-60 cell line screen, 48 h

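Briefly, cells in 96-well plates were exposed to five compound concentrations for 48 h, and endpoints were estimated by linear interpolation. Here, GI50 denotes the concentration required for 50% inhibition of growth.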 Active and inactive are the calls of the source. Cut-off read from the data, not from the text of the source: active = GI50 up to about 1.1 µM and inactive = higher. A value given as a limit tells only on which side of the number the result lay.

For the molecule `Cn1c(-c2ccc(/N=N/Nc3ccc(-c4n[nH]c(=S)n4C)cc3)cc2)n[nH]c1=S`, the GI50 in the assay with K562 was 2.82 µM (inactive); with HT-29, > 100 µM (inactive); in the assay on HOP-92 it was 2.91 µM (inactive); in the assay on RPMI-8226, 2.79 µM (inactive); with COLO 205 it was 56 µM (inactive); in the assay on TK-10 it was 28.7 µM (inactive). The GI50 with EKVX is 20.6 µM (inactive); with SNB-75, 16 µM (inactive); in the assay on NCI-H23, 7.8 µM (inactive); with A549 it was > 100 µM (inactive); with A498 it was 24.9 µM (inactive); with SR it was 4.81 µM (inactive). Moreover, the GI50 in the assay with SF-295 is 18.3 µM (inactive); in the assay with SK-MEL-28, > 100 µM (inactive); in the assay with RXF 393 it was 11.6 µM (inactive); in the assay with OVCAR-5, > 100 µM (inactive); with OVCAR-3, 33.3 µM (inactive).
For the molecule `COc1ccc(-n2c3c(c4cc(O)ccc42)Cc2ccccc2C3=O)cc1`, the GI50 in the assay on K562 is 31.3 µM (inactive); in the assay with HT-29, 53.2 µM (inactive); with RPMI-8226 it was 3.76 µM (inactive); in the assay on COLO 205, 11.7 µM (inactive); in the assay on TK-10 it was 58.7 µM (inactive); in the assay on SNB-75, 2.19 µM (inactive). The GI50 was > 100 µM (inactive) with NCI-H23; 35.6 µM (inactive) in the assay with A549; 90.6 µM (inactive) with A498; 41.9 µM (inactive) in the assay with SR; 16.5 µM (inactive) with SF-295; 28.1 µM (inactive) with SK-MEL-28. Further, the GI50 with NCI-H460 is 16.1 µM (inactive); in the assay on RXF 393, < 0.01 µM (active); in the assay with OVCAR-3, 21.4 µM (inactive); in the assay with SF-539, 34.9 µM (inactive).
As for `O=c1[nH]c2cc3cccnc3c(Cl)c2nc1CBr`, the GI50 was 12.1 µM (inactive) in the assay on K562; 19.5 µM (inactive) in the assay with HT-29; 14.1 µM (inactive) in the assay on HOP-92; 6.05 µM (inactive) in the assay with RPMI-8226; 13.8 µM (inactive) in the assay with COLO 205; 21.7 µM (inactive) with TK-10. In addition, the GI50 is 16.1 µM (inactive) with EKVX; 15 µM (inactive) in the assay on NCI-H23; 19.3 µM (inactive) with A549; 6.18 µM (inactive) in the assay with SR; 21.6 µM (inactive) in the assay on SF-295; 19 µM (inactive) in the assay on NCI-H460. The GI50 with RXF 393 is 17.7 µM (inactive); with OVCAR-5 it was 20.3 µM (inactive); in the assay with OVCAR-3 it was 14.8 µM (inactive); in the assay on SF-539, 11.2 µM (inactive).
Turning to `N#Cc1nc(-c2ccsc2)oc1N`, the GI50 with K562 was > 100 µM (inactive); in the assay with HT-29, > 100 µM (inactive); in the assay with HOP-92, > 100 µM (inactive); in the assay on RPMI-8226 it was 77.4 µM (inactive); in the assay on TK-10, > 100 µM (inactive); in the assay with EKVX, > 100 µM (inactive). Besides, the GI50 in the assay with SNB-75 is 57 µM (inactive); in the assay on A549, > 100 µM (inactive); in the assay with A498, > 100 µM (inactive); with SR it was > 100 µM (inactive); in the assay with SK-MEL-28 it was > 100 µM (inactive); with RXF 393, > 100 µM (inactive). In addition, the GI50 in the assay on OVCAR-5 was > 100 µM (inactive).
Turning to `COc1cc2c(/C=C3/C(=O)Nc4ccc(O)cc43)c(Cl)n(Cc3ccccc3)c2cc1C`, the GI50 with K562 was 0.583 µM (active); with HT-29, 0.75 µM (active); in the assay on HOP-92 it was 12.8 µM (inactive); with RPMI-8226, 0.687 µM (active); in the assay with COLO 205 it was 1.04 µM (active); in the assay with TK-10 it was 3.36 µM (inactive). Further, the GI50 with EKVX was 5.62 µM (inactive); with SNB-75, 0.979 µM (active); in the assay with NCI-H23, 0.618 µM (active); in the assay with A549, 0.975 µM (active); with SR, 0.356 µM (active); in the assay with SF-295, 0.323 µM (active). The GI50 is 3.56 µM (inactive) in the assay with SK-MEL-28; 0.553 µM (active) in the assay with NCI-H460; 0.352 µM (active) in the assay on RXF 393; 2.1 µM (inactive) in the assay with OVCAR-5; 0.234 µM (active) in the assay with OVCAR-3; 0.392 µM (active) with SF-539.
`Cc1c2cnccc2nc2[nH]c3ccncc3c12`: the GI50 in the assay on K562 is 10.8 µM (inactive); in the assay on HT-29 it was 5.6 µM (inactive); in the assay with HOP-92, 3.78 µM (inactive); with RPMI-8226, 2.24 µM (inactive); in the assay with COLO 205 it was 8.49 µM (inactive); with TK-10 it was 3.95 µM (inactive). The GI50 was 16 µM (inactive) in the assay with EKVX; > 100 µM (inactive) in the assay with SNB-75; 1.44 µM (inactive) in the assay on NCI-H23; 2.94 µM (inactive) with A549; 5.47 µM (inactive) in the assay on A498; 2.79 µM (inactive) in the assay on SR. Also, the GI50 in the assay on SF-295 was 6.84 µM (inactive); in the assay with SK-MEL-28 it was 32.4 µM (inactive); in the assay on NCI-H460 it was 2.16 µM (inactive); in the assay on OVCAR-5 it was 5.62 µM (inactive); in the assay on OVCAR-3, 10.4 µM (inactive); in the assay with SF-539, 6.73 µM (inactive).
As for `CCCNC(=S)NNC(=O)CSc1nc(-c2ccccc2)c(-c2ccccc2)[nH]1`, the GI50 in the assay with HT-29 was 42 µM (inactive); with HOP-92 it was 23.5 µM (inactive); with RPMI-8226 it was 28.4 µM (inactive); in the assay on COLO 205, 39 µM (inactive); in the assay on TK-10, 70.5 µM (inactive); in the assay on EKVX, 37 µM (inactive). Besides, the GI50 with SNB-75 was 49.1 µM (inactive); in the assay on NCI-H23, 76 µM (inactive); in the assay on A549 it was 75.5 µM (inactive); with A498 it was 77.6 µM (inactive); in the assay with SR, 29.2 µM (inactive); in the assay on SF-295, 54.6 µM (inactive). Besides, the GI50 in the assay with SK-MEL-28 is > 100 µM (inactive); with NCI-H460, 39.9 µM (inactive); in the assay with OVCAR-5, > 100 µM (inactive); in the assay on OVCAR-3, 28 µM (inactive); with SF-539, 90.6 µM (inactive).
Regarding `O=c1[nH]c(=O)n(C2CC(O)C(CO)O2)cc1C(F)(C(F)(F)F)C(F)(F)F` (stereo not given), the GI50 was > 100 µM (inactive) with K562; > 100 µM (inactive) in the assay on HT-29; > 100 µM (inactive) in the assay on HOP-92; 45.6 µM (inactive) in the assay on RPMI-8226; 71 µM (inactive) in the assay on COLO 205; > 100 µM (inactive) in the assay with TK-10. The GI50 in the assay on EKVX, in the assay with SNB-75, in the assay on NCI-H23, in the assay with A498, with SR and in the assay with SF-295 was > 100 µM (inactive) throughout. Moreover, the GI50 in the assay with SK-MEL-28, in the assay on NCI-H460, with RXF 393, in the assay on OVCAR-5, in the assay on OVCAR-3 and in the assay with SF-539 was > 100 µM (inactive) in each case.
Turning to `Cn1c(=O)c2[nH]cnc2n(CC(=O)O)c1=O`, the GI50 in the assay with K562, in the assay on HT-29, in the assay on HOP-92, in the assay on RPMI-8226, with COLO 205 and with TK-10 was > 100 µM (inactive) each time. Further, the GI50 in the assay with EKVX, in the assay on SNB-75, in the assay with NCI-H23, in the assay with A549, with A498 and in the assay on SR was > 100 µM (inactive) each time. For the same molecule, the GI50 in the assay with SK-MEL-28, in the assay on NCI-H460, in the assay on OVCAR-5, in the assay on OVCAR-3 and in the assay on SF-539 was > 100 µM (inactive) each time.

(Values after ChEMBL document CHEMBL1201862, “PubChem BioAssay data set” (2004).)
